Laboratory results as given in PMC6843445, “Pharmacokinetic Properties of Fluorescently Labelled Hydroxypropyl-Beta-Cyclodextrin” (Biomolecules, 2019).

Experiments:
[1] = In vivo pharmacokinetic investigation, plasma FITC-HPBCD after i.v. administration; parameters: species or system BALB/c male mice; settings: for CL: clearance = terminal ke × Vd1; for CL / ke (1–15 min) / t1/2 (1–15 min) / t1/2 (15–30 min) / t1/2 (30–60 min) / ke (15–30 min) / t1/2 (15–45 min) / t1/2 (45–60 min) / ke (15–45 min) / kc (1–15 min) / ke (30–60 min) / ke (45–60 min) / Vd: dose 250 µg; for ke (1–15 min): elimination rate constant; for ke (1–15 min) / ke (15–30 min) / ke (15–45 min) / kc (1–15 min) / ke (30–60 min) / ke (45–60 min): in min-1 (unit assumed); for t1/2 (1–15 min) / t1/2 (15–30 min) / t1/2 (30–60 min) / t1/2 (15–45 min) / t1/2 (45–60 min): in min; for Vd at 1 min of sampling: n = 6; for kc (1–15 min): rate constant of compartmentalization; for ke (30–60 min) / ke (45–60 min): terminal phase; for Vd: volume of distribution at 1 min
Procedure: Twelve BALB/c male mice (23–25 g) were involved in the study. 0.25 mg FITC-HPBCD, dissolved in 0.2 mL saline solution was injected into the lateral tail vein of each mouse. Blood samples were collected from the orbital sinus from six mice after 1, 15, 30 and 60 min and at 1, 15, 45 and 60 min from other six mice by the same sampling method. Blood samples were incubated for 1 h at 37 °C and centrifuged for 8 min at 1700 rpm to separate blood plasma. Aliquots of plasma from the samples were placed into black 96-well plates and their fluorescence intensities were measured by a FLUOstar Optima microplate reader (BMG LABTECH, Offenburg, Germany; 492 nm excitation and 520 nm emission wavelengths) and the plasma FITC-HPBCD concentrations were calculated.
The two compartment model was characterized by the following equations:(3) Ct=C^′×e^−kc×t+C^″×e^−ke×t (4) C0=C^′+C^″ where ke is the elimination rate constant of FITC-HPBCD determined from data of the terminal phase (ke(30-60 min) or ke(45-60 min)); t1/2 is the half-life of FITC-HPBCD calculated from the corresponding ke values; CL is the clearance of FITC-HPBCD; Vd is the volume of distribution of FITC-HPBCD determined from data related to the first minute (Vd1); Ct is the plasma concentration of FITC-HPBCD at “t”; C′ and C″ are the two components of the initial plasma concentration of FITC-HPBCD representing the amount of FITC-HPBCD that will be compartmentalized and eliminated, respectively.

[2] = Tissue accumulation in the supernatant of tissue homogenates ex vivo; parameters: species or system BALB/c male mice; settings: mice, i.v., after 60 min
Procedure: After the last blood sample collection, six animals were anaesthetized, and their blood vessels were perfused by warm saline solution. Finally, all mice were sacrificed, and the organs were removed from the six saline-perfused mice for further analysis. The collected organs (livers, lungs, kidneys, spleens, hearts and brains) were homogenized by adding 0.8 mL saline solution and the homogenates were centrifuged at 10,000 rpm for 20 min at 4 °C. From each sample, 0.1 mL of supernatant was placed into black 96-well plates and the fluorescence intensities were measured by microplate reader as described above. The lower limit of quantification of FITC-HPBCD in mouse plasma and organ homogenates was 0.25 µg/mL. The protein content of the tissue samples was determined by PierceTM BCA protein assay (Thermo Scientific, Rockford, IL, USA) according to the manufacturer’s instruction. FITC-HPBCD content of the samples was normalized to the tissue protein content. The animals were maintained in accordance with the Guidelines for the Care and Use of Laboratory Animals; experiments were approved by the Animal Care Committee of the University of Debrecen (permission no. 12/2014).

[3] = In vivo and ex vivo fluorescence imaging; parameters: species or system Male BALB/c mice; settings: mice, i.v.
Procedure: Male BALB/c mice (22–25 g) were bred and maintained in normal watering and feeding conditions in a Laboratory Animal Husbandry Facility, equipped with IVC (individually ventilated cages), controlled atmosphere-temperature, humidity and lighting (Vasile Goldis Western University, Arad, Romania). All experimental procedures were performed in compliance with the appropriate laws and institutional guidelines, and were approved by the Institutional Ethics Committee of Vasile Goldiș Western University of Arad (Arad, Romania). FITC-HPBCD (0.5 and 2.5 mg), dissolved in 0.1 mL saline solution was injected into the femoral vein of mice under general anaesthesia. Maintaining the surgical plane of anesthesia, mice were placed into an in vivo imaging system (In-vivo Xtreme, Carestream, Carestream Health Inc. USA). At 5, 15, 30, 45 and 60 min, fluorescence and X-ray images were recorded of the animals. After 30 or 60 min, the blood vessels of some animals were perfused by warm saline solution and their organs (livers, lungs, kidneys, spleens and brains) were removed for ex vivo imaging (excitation: 480 nm, emission: 535 nm).

[4] = test system: HUVECs; experiment: Intracellular FITC-HPBCD accumulation, fluorescence microscopy; type: cell-based, Human; settings: 50 µM, 30 min, 37 °C
Procedure: Human umbilical vein endothelial cells (HUVECs) were removed from umbilical veins by exposure to dispase (0.2% in Hank’s balanced salt solution) and cultured in gelatin-coated flasks in medium 199 containing 15% foetal bovine serum (FBS), antibiotics, L-glutamine, sodium pyruvate and endothelial cell growth supplement from bovine pituitary. For the fluorescent microscopic experiments, cells were seeded onto gelatin-coated round glass coverslips and maintained in medium until the treatments.
HUVECs, cultured on gelatin-coated glass coverslips were washed twice with Hank’s Balanced Salt Solution (HBSS) and treated with 50 µM FITC-HPBCD for 30 min at 37 °C. Cells were washed five times with ice-cold HBSS and fixed with 3% paraformaldehyde for 15 min. After fixation cells were washed with HBSS and the nuclei were stained with Hoechst 33,342 at the final concentration of 300 nM. Cells were washed again and mounted on microscope slides. […] Images were analyzed with ZEN 2012 v.1.1.0.0. software (Carl Zeiss Microscopy GmbH, Göttingen, Germany)

[5] = mice, i.v., Group F, sampling 1, 15, 30 and 60 min
[6] = mice, i.v., Group F, sampling 1, 15, 45 and 60 min
[7] = mice, i.v., Group NF, sampling 1, 15, 30 and 60 min
[8] = mice, i.v., Group NF, sampling 1, 15, 45 and 60 min

## 6-deoxy-6-[(5/6)-fluoresceinylthioureido]-(2-hydroxypropyl)-β-cyclodextrin [FITC-HPBCD]
[1]; [5]
  CL: 0.11 ± 0.15 mL/min
  ke (1–15 min): 0.092 ± 0.023
  t1/2 (15–30 min): 7.54 ± 0.52
  t1/2 (30–60 min): 122.3 ± 109.4
  ke (15–30 min): 0.092 ± 0.007
  kc (1–15 min): 0.109 ± 0.026
  ke (30–60 min): 0.022 ± 0.029
  Vd: 4.86 ± 0.21 mL
[1]; [6]
  CL: 0.23 ± 0.08 mL/min
  ke (1–15 min): 0.095 ± 0.017
  t1/2 (1–15 min): 7.5 ± 1.13
  t1/2 (15–45 min): 13.55 ± 1.45
  t1/2 (45–60 min): 20.06 ± 3.89
  ke (15–45 min): 0.052 ± 0.007
  kc (1–15 min): 0.142 ± 0.033
  ke (45–60 min): 0.036 ± 0.008
  Vd: 6.25 ± 0.77 mL
[1]; [7]
  CL: 0.25 ± 0.15 mL/min
  ke (1–15 min): 0.115 ± 0.017
  t1/2 (15–30 min): 35.01 ± 10.15
  t1/2 (30–60 min): 16.61 ± 7.12
  ke (15–30 min): 0.022 ± 0.009
  ke (30–60 min): 0.049 ± 0.020
  Vd: 4.70 ± 1.27 mL
[1]; [8]
  CL: 0.69 ± 0.38 mL/min
  ke (1–15 min): 0.107 ± 0.006
  t1/2 (1–15 min): 6.50 ± 0.31
  t1/2 (15–45 min): 13.36 ± 3.05
  t1/2 (45–60 min): 8.99 ± 4.54
  ke (15–45 min): 0.054 ± 0.013
  ke (45–60 min): 0.095 ± 0.044
  Vd: 7.01 ± 0.81 mL
[1]; mice, i.v., all animals n = 12
  Vd at the first minute, average: 5.7 ± 1.34 mL
[1]; mice, i.v., Group F (followed two-compartment model), sampling 1, 15, 30 and 60 min
  t1/2 (1–15 min): 7.82 ± 1.48
[1]; mice, i.v., Group NF (did not follow model), sampling 1, 15, 30 and 60 min
  t1/2 (1–15 min): 6.13 ± 0.78
[1]; mice, i.v., group following the model
  Vd at 1 min of sampling: 5.55 ± 0.98 mL
[1]; mice, i.v., group not following the model
  Vd at 1 min of sampling: 5.85 ± 1.72 mL
[1]; mouse, in vivo, iv
  i.v. administered FITC-HPBCD eliminated from mice within 60 min: 96.58 ± 2.6%
[2]
  fluorescence intensities in the supernatant of liver, lung, spleen, heart and brain homogenates: not elevated
[2]; normalized to tissue protein content
  fluorescence intensity in the supernatant of kidney homogenates: significant fluorescence
[3]; 0.5 mg
  ex vivo fluorescence of lungs vs untreated control, separated imaging: higher ex vivo fluorescence
[3]; 0.5 mg and 2.5 mg/animal, images at 5-60 min
  in vivo whole-body fluorescence distribution: distributed over the entire body of the animals
[3]; 0.5 mg, after 30 min
  ex vivo fluorescence of kidneys: relative higher fluorescence
[3]; 2.5 mg/animal
  ex vivo fluorescence of kidneys: especially high fluorescence
  ex vivo fluorescence of lung: elevated intensity
[3]; 2.5 mg/animal, every organ (livers, lungs, kidneys, spleens, brains)
  ex vivo fluorescence of organs vs control: higher fluorescence intensities
[3]; 30 and 45 min, urinated out at 60 min
  in vivo fluorescence of the bladder: accumulated in the bladder
[3]; after 60 min
  ex vivo fluorescence of brains vs untreated: no difference
[3]; both doses (0.5 and 2.5 mg), after 30 min, separated examination
  ex vivo fluorescence of brains vs untreated: higher fluorescence than the untreated ones
[4]
  cellular localization by fluorescence microscopy: detected in the cytoplasm of HUVECs in small green vesicles
